Test results taken from patent publication US20250152585A1, “PHARMACEUTICAL COMPOUND” (Duke Street Bio Limited, priority 2022, published 2025).
Like-named read-outs stand apart in the source and are kept apart here.

Columns and labels:
[1] = biological target: T1, N-terminally FLAG-tagged PARP2 (amino acids 1-583) (Homo sapiens, UniProt Q9UGN5); assay: PARP2 probe displacement HTRF assay; assay type: binding; settings: binned Kd
T1 construct: N-terminally FLAG-tagged PARP2 (amino acids 1-583)
Protocol: Data analysis was performed identical as for PARP1.

[2] = biological target: full length N-terminally FLAG-tagged PARP1 (Homo sapiens, UniProt P09874); assay: PARP1 probe displacement HTRF assay; settings: for Selectivity: PARP1 over PARP2, ratio Kd (PARP2)/Kd (PARP1), probe displacement HTRF; for Kd: binned Kd, PARP1 probe displacement HTRF
Chain of full length N-terminally FLAG-tagged PARP1 (P09874 whole entry): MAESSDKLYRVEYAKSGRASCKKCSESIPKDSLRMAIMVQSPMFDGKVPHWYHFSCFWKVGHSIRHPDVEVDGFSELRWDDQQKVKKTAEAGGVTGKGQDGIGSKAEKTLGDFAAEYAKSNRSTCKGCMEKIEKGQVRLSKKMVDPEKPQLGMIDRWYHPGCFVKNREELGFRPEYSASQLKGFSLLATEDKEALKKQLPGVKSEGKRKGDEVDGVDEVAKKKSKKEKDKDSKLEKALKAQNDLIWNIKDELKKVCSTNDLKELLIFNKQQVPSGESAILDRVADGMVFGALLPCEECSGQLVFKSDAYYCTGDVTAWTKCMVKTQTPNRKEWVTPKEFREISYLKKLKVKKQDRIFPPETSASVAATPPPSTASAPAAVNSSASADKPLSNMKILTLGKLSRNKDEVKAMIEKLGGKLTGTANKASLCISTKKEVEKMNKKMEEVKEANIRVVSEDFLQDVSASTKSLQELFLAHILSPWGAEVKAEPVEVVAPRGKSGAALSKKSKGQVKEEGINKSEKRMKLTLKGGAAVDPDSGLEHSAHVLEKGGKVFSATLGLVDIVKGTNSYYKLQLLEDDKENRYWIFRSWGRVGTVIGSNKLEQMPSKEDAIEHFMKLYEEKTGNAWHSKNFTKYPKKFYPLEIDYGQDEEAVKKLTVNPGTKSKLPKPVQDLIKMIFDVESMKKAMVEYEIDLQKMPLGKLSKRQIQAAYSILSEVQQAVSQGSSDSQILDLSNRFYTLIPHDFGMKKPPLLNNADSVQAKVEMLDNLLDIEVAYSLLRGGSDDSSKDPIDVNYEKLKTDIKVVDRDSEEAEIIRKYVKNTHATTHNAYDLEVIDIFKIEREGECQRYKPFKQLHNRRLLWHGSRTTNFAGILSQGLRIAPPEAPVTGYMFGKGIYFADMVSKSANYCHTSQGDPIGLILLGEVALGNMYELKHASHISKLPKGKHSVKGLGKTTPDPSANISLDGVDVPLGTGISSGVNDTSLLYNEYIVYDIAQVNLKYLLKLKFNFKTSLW

T1 sequence (Q9UGN5 whole entry, the tested form may be a part): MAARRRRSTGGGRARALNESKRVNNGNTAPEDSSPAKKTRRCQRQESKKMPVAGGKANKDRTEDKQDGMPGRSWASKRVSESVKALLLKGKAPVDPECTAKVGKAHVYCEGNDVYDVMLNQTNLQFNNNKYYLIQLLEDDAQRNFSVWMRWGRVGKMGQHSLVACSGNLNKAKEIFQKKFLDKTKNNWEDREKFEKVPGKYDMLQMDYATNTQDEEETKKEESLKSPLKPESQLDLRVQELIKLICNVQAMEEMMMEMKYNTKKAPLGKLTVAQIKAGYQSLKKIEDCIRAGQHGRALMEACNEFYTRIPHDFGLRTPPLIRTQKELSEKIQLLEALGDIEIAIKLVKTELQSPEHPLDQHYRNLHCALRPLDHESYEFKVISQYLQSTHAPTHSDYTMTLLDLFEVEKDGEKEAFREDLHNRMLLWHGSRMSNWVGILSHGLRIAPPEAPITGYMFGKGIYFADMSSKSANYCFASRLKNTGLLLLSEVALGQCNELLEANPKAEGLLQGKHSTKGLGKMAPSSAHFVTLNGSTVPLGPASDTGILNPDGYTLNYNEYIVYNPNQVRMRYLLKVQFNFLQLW

Compound | Kd ([1]; PARP2 probe displacement HTRF) [nM] | Selectivity [2] | Kd ([2]; read-out: PARP1 HTRF) [nM] | Kd ([2]; PARP1 HTRF) [nM] | Kd ([1]; probe displacement HTRF) [nM]
CNC(=O)c1ccc(N2CCC(N3CCC(c4nc5cnccc5c(=O)[nH]4)C3)CC2)cn1 (single isomer, unassigned) [Compound 84b] | > 10000 | ++ (++ indicates a value of 50 to less than 100) | 10 to 100 |  | 
N#Cc1ccc(N2CCC(N3CCCC(c4nc5ccccc5c(=O)[nH]4)C3)CC2)cc1 (single isomer, unassigned) [Compound 79a] | 100 to 1000 | + (+ indicates a value of 10 to less than 50) | 10 to 100 |  | 
CNC(=O)c1ccc(N2CCC(N3CCC(c4nc5cc(Cl)ccc5c(=O)[nH]4)C3)CC2)cn1 (single isomer, unassigned) [Compound 87b] | 1000 to 10000 | +++ (+++ indicate a value of at least 100) | < 10 |  | 
CNC(=O)c1ccc(N2CCC(N3CCCC(c4nc5cccc(F)c5c(=O)[nH]4)C3)CC2)cn1 (single isomer, unassigned) [Compound 88a] | 100 to 1000 | − (− indicates a value of less than 10) | 100 to 1000 |  | 
CNC(=O)c1ccc(N2CCC(N3CCCC(c4nc5cccc(F)c5c(=O)[nH]4)C3)CC2)cn1 (single isomer, unassigned) [Compound 88b] | 1000 to 10000 | +++ (+++ indicate a value of at least 100) | < 10 |  | 
CNC(=O)c1ccc(N2CCC(N3CCCC(c4nc5ccc(F)cc5c(=O)[nH]4)C3)CC2)cn1 (single isomer, unassigned) [Compound 78b] | 100 to 1000 | + (+ indicates a value of 10 to less than 50) | 10 to 100 |  | 
CNC(=O)c1ccc(N2CCC(N3CCCC(c4nc5cccnc5c(=O)[nH]4)C3)CC2)cn1 (single isomer, unassigned) [Compound 89b] | > 10000 | + (+ indicates a value of 10 to less than 50) | 100 to 1000 |  | 
N#Cc1ccc(N2CCC(N3CCCC(c4nc5ccccc5c(=O)[nH]4)C3)CC2)cc1 (single isomer, unassigned) [Compound 79b] | 100 to 1000 | + (+ indicates a value of 10 to less than 50) | 10 to 100 |  | 
CNC(=O)c1ccc(N2CCC(N3CCC(c4nc5c(C(F)(F)F)cccc5c(=O)[nH]4)C3)CC2)cn1 (single isomer, unassigned) [Compound 178a] | 1000 to 10000 | − (− indicates a value of less than 10) | 100 to 1000 |  | 
CNC(=O)c1ccc(N2CCC(N3CCC(c4nc5cccnc5c(=O)[nH]4)C3)CC2)cn1 (single isomer, unassigned) [Compound 77b] | > 10000 | +++ (+++ indicate a value of at least 100) | 10 to 100 |  | 
CNC(=O)c1ccc(N2CCC(N3CCC4CC4(c4nc5ccccc5c(=O)[nH]4)C3)CC2)cn1 (single isomer, unassigned) [Compound 90a] | > 10000 | + (+ indicates a value of 10 to less than 50) | 100 to 1000 |  | 
CNC(=O)c1ccc(N2CCC(N3CCC(c4nc5c(C(F)(F)F)cccc5c(=O)[nH]4)C3)CC2)cn1 (single isomer, unassigned) [Compound 178b] | 1000 to 10000 | +++ (+++ indicate a value of at least 100) | < 10 |  | 
CNC(=O)c1ccc(N2CCC(N3CCC(c4nc5ccncc5c(=O)[nH]4)C3)CC2)cn1 (single isomer, unassigned) [Compound 81a] | > 10000 | + (+ indicates a value of 10 to less than 50) | 100 to 1000 |  | 
CNC(=O)c1ccc(N2CCC(N3CCCC(c4nc5ccccc5c(=O)[nH]4)C3)CC2)cc1 (single isomer, unassigned) [Compound 82b] | > 10000 | ++ (++ indicates a value of 50 to less than 100) | 10 to 100 |  | 
CNC(=O)c1ccc(N2CCC(N3CCC(c4nc5ccccc5c(=O)[nH]4)C3)CC2)cc1 (single isomer, unassigned) [Compound 80b] | 100 to 1000 | − (− indicates a value of less than 10) | 100 to 1000 |  | 
CNC(=O)c1ccc(N2CCC(CN3CCC(c4ncc(C(F)(F)F)c(=O)[nH]4)CC3)CC2)cn1 [Compound 75] | > 10000 | − (− indicates a value of less than 10) |  | 1000 to 10000 | 
CNC(=O)c1ccc(N2CCC(N3CCC(c4cc5ccc(C(F)(F)F)cc5c(=O)[nH]4)C3)CC2)cn1 (racemic) [Compound 177rac] | > 10000 | +++ (+++ indicate a value of at least 100) | < 10 |  | 
CNC(=O)c1ccc(N2CCC(N3CCC(c4nc5cccc(Cl)c5c(=O)[nH]4)C3)CC2)cn1 (single isomer, unassigned) [Compound 85a] | 100 to 1000 | + (+ indicates a value of 10 to less than 50) | 10 to 100 |  | 
O=c1[nH]c(C2CCN(C3CCN(c4ccc(-c5ncc[nH]5)cc4)CC3)C2)nc2ccccc12 (single isomer, unassigned) [Compound 76b] | < 10 | − (− indicates a value of less than 10) | 10 to 100 |  | 
CNC(=O)c1ccc(N2CCC(N3CCCC(c4nc5ccccc5c(=O)[nH]4)C3)CC2)cc1 (single isomer, unassigned) [Compound 82a] | 100 to 1000 | − (− indicates a value of less than 10) | 10 to 100 |  | 
CNC(=O)c1ccc(N2CCC(N3CCCC(c4nc5ccccc5c(=O)[nH]4)C3)CC2)nc1 (single isomer, unassigned) [Compound 83a] | 1000 to 10000 | − (− indicates a value of less than 10) | 100 to 1000 |  | 
CNC(=O)c1ccc(N2CCC(N3CCCC(c4nc5cccnc5c(=O)[nH]4)C3)CC2)cn1 (single isomer, unassigned) [Compound 89a] | > 10000 | − (− indicates a value of less than 10) | > 10000 |  | 
CNC(=O)c1ccc(N2CCC(N3CCCC(c4nc5ccccc5c(=O)[nH]4)C3)CC2)nc1 (single isomer, unassigned) [Compound 83b] | > 10000 | + (+ indicates a value of 10 to less than 50) | 100 to 1000 |  | 
CNC(=O)c1ccc(N2CCC(N3CCC4CC4(c4nc5ccccc5c(=O)[nH]4)C3)CC2)cn1 (single isomer, unassigned) [Compound 90b] | 1000 to 10000 | + (+ indicates a value of 10 to less than 50) | 100 to 1000 |  | 
CNC(=O)c1ccc(N2CCC(N3CCC(c4cc5c(F)cncc5c(=O)[nH]4)C3)CC2)c(F)n1 (single isomer, unassigned) [Compound 343b, 6-fluoro-5-(4-(3-(5-fluoro-1-oxo-1,2-dihydro-2,7-naphthyridin-3-yl)pyrrolidin-1-yl)piperidin-1-yl)-N-methylpicolinamide] |  |  |  |  | 1000 to 10000
CNC(=O)c1ccc(N2CCC(N3CCC(c4nc5cnccc5c(=O)[nH]4)C3)CC2)cn1 (single isomer, unassigned) [Compound 84a] | > 10000 | − (− indicates a value of less than 10) | 1000 to 10000 |  | 
CNC(=O)c1ccc(N2CCC(N3CCC(c4nc5ccncc5c(=O)[nH]4)C3)CC2)cn1 (single isomer, unassigned) [Compound 81b] | > 10000 | +++ (+++ indicate a value of at least 100) | 10 to 100 |  | 
CCN1CCCc2c1nc(C13CC(C1)N(C1CCN(c4ccc(C(=O)NC)nc4)CC1)C3)[nH]c2=O [Compound 383] |  |  |  |  | 100 to 1000
